According to BindingDB's records for patent US11198695 (SHIONOGI & CO., LTD., 2021):

Molecular target: 2-acylglycerol O-acyltransferase 2 (Homo sapiens, UniProt Q3SYC2)
Assay: Inhibitory Activity
Description: Solutions of the compounds of the present invention in DMSO were each aliquoted into 0.2-μL portions in a 384-well polystyrene microplate produced by Corning Incorporated, and 5 μL of an enzyme solution prepared with an assay buffer (100 mmol/L phosphate buffer (pH 7.4) containing 2 mmol/L DTT) and 5 μL of a substrate solution (100 mmol/L phosphate buffer (pH 7.4), 30 μmol/L 2-Oleoylglycerol, 10 μmol/L Oleoyl-CoA) were added thereto, and the resultant was stirred and centrifuged, and incubated in a moist chamber at room temperature for 1 hour. After enzymatic reaction, 50 μL of a quenching solution (containing 0.2 μmol/L Diolein-d5, 0.4% formic acid, and 50% isopropanol) containing Internal Standard (IS) was added to terminate the reaction, and the resultant was sealed in a plate produced by Shimadzu GLC Ltd., and then stirred and centrifuged, and measurement was performed by using an electrospray ionization method with a RapidFire360 and Agilent 6550 Q-TOF mass spectrometer. Diolein as a reaction product (P) of 2-Oleoylglycerol as the substrate and an ammonium adduct ion of the IS were detected, and the peak intensity ratio, P/IS, was calculated from the peak heights to evaluate the inhibitory activity. Inhibitory activities with/without addition of enzyme were defined as Control (+)/Control (−), respectively, and the respective % inhibitions were defined as 0% inhibition and 100% inhibition. The inhibitory activity was calculated from formula below with TIBCO Spotfire (produced by TIBCO Software Inc.):Inhibitory activity (%)=[1−{Sample−Control(−)}/{Control(+)−Control(−)}]*100where Sample indicates a peak intensity ratio: P/IS, when the compound of the present invention was added.

Sequence of 2-acylglycerol O-acyltransferase 2 (Q3SYC2 whole entry): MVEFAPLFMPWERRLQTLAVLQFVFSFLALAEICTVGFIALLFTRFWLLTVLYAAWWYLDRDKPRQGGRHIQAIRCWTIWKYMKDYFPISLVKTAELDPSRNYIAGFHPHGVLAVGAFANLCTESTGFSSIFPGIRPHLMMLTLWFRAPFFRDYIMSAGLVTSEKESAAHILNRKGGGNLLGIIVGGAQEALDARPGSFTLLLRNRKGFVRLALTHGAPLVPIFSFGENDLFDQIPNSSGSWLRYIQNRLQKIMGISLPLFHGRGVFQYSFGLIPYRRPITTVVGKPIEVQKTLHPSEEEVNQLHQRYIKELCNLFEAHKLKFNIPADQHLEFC

IC50 | SMILES
26 nM | COc1ccc(-n2nc3c(c2NC(=O)CS(C)(=O)=O)C(=O)N[C@]2(CCc4cc(OCC(F)(F)F)ccc42)C3)cc1 [US11198695, Example I-268]
12.1 nM | C#Cc1ccc(-n2nc3c(c2C(=O)NS(=O)(=O)C2CC2)C(=O)N[C@@]2(CCc4cc(OCC(F)(F)F)ccc42)C3)nc1 [US11198695, Example II-201]
< 1 nM | CS(=N)(=O)CC(=O)Nc1c2c(nn1-c1ccc(C(F)F)nn1)C[C@]1(CCc3cc(OCC(F)(F)F)ccc31)NC2=O (stereo partly drawn) [US11198695, Example II-281]
